Laboratory results: PubChem BioAssay (NCI)
Where “and” joins values, the source holds several entries; their conditions need not be identical. Identical values can stand only once.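 Dose response: 5 concentrations. Exposure: 48 h. Format: 96-well plates. Endpoint: linear interpolation; highest concentration if not reached. GI50: concentration for 50% inhibition of growth. TGI is the concentration that stops growth completely.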

Legend:
Experiment in all cases: NCI-60 cell line screen, 48 h
HL-60(TB) leukemia = tested on: HL-60(TB) leukemia
ACHN renal = tested on: ACHN renal
IGROV1 ovarian = tested on: IGROV1 ovarian
COLO 205 colon = tested on: COLO 205 colon
U251 CNS = tested on: U251 CNS
NCI-H23 lung = tested on: NCI-H23 lung
HCT-116 colon = tested on: HCT-116 colon
SF-539 CNS = tested on: SF-539 CNS
SK-MEL-5 melanoma = tested on: SK-MEL-5 melanoma
NCI-H460 lung = tested on: NCI-H460 lung

## Cn1c(=O)c(Oc2ccc(F)cc2F)cc2cnc(NC3CCC(O)CC3)nc21 (centres undefined)
HL-60(TB) leukemia
  GI50: > 25 µM
  TGI: > 25 µM
ACHN renal
  GI50: > 25 µM
  TGI: > 25 µM
IGROV1 ovarian
  GI50: > 25 µM
  TGI: > 25 µM
COLO 205 colon
  GI50: > 25 µM
  TGI: > 25 µM
U251 CNS
  GI50: > 25 µM
  TGI: > 25 µM
NCI-H23 lung
  GI50: > 25 µM
  TGI: > 25 µM
HCT-116 colon
  GI50: > 25 µM
  TGI: > 25 µM
SF-539 CNS
  GI50: > 25 µM
  TGI: > 25 µM
SK-MEL-5 melanoma
  GI50: > 25 µM
  TGI: > 25 µM
NCI-H460 lung
  GI50: > 25 µM
  TGI: > 25 µM

## O=C(NCc1cccnc1)c1ccc([N+](=O)[O-])o1
HL-60(TB) leukemia
  GI50: 8.44 µM
  TGI: 25 µM
ACHN renal
  GI50: 3.56 µM
  TGI: > 15.5 µM
IGROV1 ovarian
  GI50: 4.52 µM
  TGI: > 24.5 µM
COLO 205 colon
  GI50: 0.659 µM
  TGI: 1.28 µM
U251 CNS
  GI50: 1.03 µM
  TGI: 3.83 µM
NCI-H23 lung
  GI50: 2.26 µM
  TGI: 6.85 µM
HCT-116 colon
  GI50: 1.42 µM
  TGI: 13.4 µM
SF-539 CNS
  GI50: 1.12 µM
  TGI: 3.76 µM
SK-MEL-5 melanoma
  GI50: 2.18 µM
  TGI: 6.38 µM
NCI-H460 lung
  GI50: 1.62 µM
  TGI: 3.73 µM

## Oc1ccc(/C=N/Nc2nnc(N/N=C/c3ccc(O)cc3O)c3ccccc23)c(O)c1
HL-60(TB) leukemia
  GI50: 0.376 µM
  TGI: 0.598 µM and 4.81 µM
ACHN renal
  GI50: 0.358 µM
  TGI: 0.422 µM and 3.94 µM
IGROV1 ovarian
  GI50: 0.493 µM
  TGI: 3.24 µM
COLO 205 colon
  GI50: 0.897 µM
  TGI: 2.96 µM
U251 CNS
  GI50: 0.312 µM
  TGI: 0.976 µM and 5.34 µM
NCI-H23 lung
  GI50: 0.707 µM
  TGI: 2.77 µM
HCT-116 colon
  GI50: 0.348 µM
  TGI: 2.16 µM
SF-539 CNS
  TGI: 0.714 µM and 0.755 µM
SK-MEL-5 melanoma
  GI50: 0.413 µM
  TGI: 0.744 µM and 3.19 µM
NCI-H460 lung
  GI50: 0.414 µM
  TGI: 1.76 µM

## O=C(O)C12C3C4C1C1C2C3C41I (centres undefined)
HL-60(TB) leukemia
  TGI: > 100 µM
ACHN renal
  TGI: > 100 µM
IGROV1 ovarian
  TGI: > 100 µM
COLO 205 colon
  TGI: > 100 µM
U251 CNS
  TGI: > 100 µM
NCI-H23 lung
  TGI: > 100 µM
HCT-116 colon
  TGI: > 100 µM
SF-539 CNS
  TGI: > 100 µM
SK-MEL-5 melanoma
  TGI: > 100 µM
NCI-H460 lung
  TGI: > 100 µM

## COc1cc2nccc(Oc3ccc(NC(=O)C4(C(=O)Nc5ccc(F)cc5)CC4)cc3)c2cc1OC
HL-60(TB) leukemia
  GI50: > 10 µM and 3.87 µM
  TGI: > 10 µM and 21.6 µM
ACHN renal
  GI50: > 10 µM and 3.88 µM
  TGI: > 10 µM and 46.3 µM
IGROV1 ovarian
  GI50: 4.51 µM and 2.59 µM
  TGI: > 31 µM
COLO 205 colon
  GI50: 6 µM and 2.1 µM
  TGI: > 10 µM and 4.63 µM
U251 CNS
  GI50: > 10 µM and 4.31 µM
  TGI: > 100 µM
NCI-H23 lung
  GI50: > 10 µM and 2.83 µM
  TGI: > 100 µM
HCT-116 colon
  GI50: > 10 µM and 3.73 µM
  TGI: > 41.5 µM
SF-539 CNS
  GI50: 1.13 µM and 1.42 µM
  TGI: > 10 µM and 12.2 µM
SK-MEL-5 melanoma
  GI50: > 10 µM and 4.66 µM
  TGI: > 100 µM
NCI-H460 lung
  GI50: > 10 µM and 3.27 µM
  TGI: > 94.6 µM

## O=C1COc2c(CCNCCN(C(=O)CCNCCc3ccc(Cl)c(Cl)c3)C3CCCCC3)ccc(O)c2N1
HL-60(TB) leukemia
  GI50: 14.2 µM
  TGI: 32.1 µM
ACHN renal
  GI50: 15.2 µM
  TGI: 29.1 µM
IGROV1 ovarian
  GI50: 15 µM
  TGI: 30.1 µM
COLO 205 colon
  GI50: 14.8 µM
  TGI: 32.3 µM
U251 CNS
  GI50: 16.3 µM
  TGI: 32 µM
NCI-H23 lung
  GI50: 18.1 µM
  TGI: 33.9 µM
HCT-116 colon
  GI50: 14.6 µM
  TGI: 28.4 µM
SF-539 CNS
  GI50: 15.1 µM
  TGI: 29.7 µM
SK-MEL-5 melanoma
  GI50: 15.6 µM
  TGI: 29.4 µM
NCI-H460 lung
  GI50: 16.5 µM
  TGI: 31.1 µM

## CN(C)C(=O)c1cc2cnc(Nc3ccc(N4CCNCC4)cn3)nc2n1C1CCCC1
HL-60(TB) leukemia
  GI50: 1.74 µM
  TGI: 28.1 µM
ACHN renal
  GI50: 7.89 µM
  TGI: > 100 µM
IGROV1 ovarian
  GI50: 19.5 µM
  TGI: > 100 µM
COLO 205 colon
  GI50: 1.75 µM
  TGI: 26.5 µM
U251 CNS
  GI50: 11.3 µM
  TGI: 49.8 µM
NCI-H23 lung
  GI50: 13.9 µM
  TGI: 63.2 µM
HCT-116 colon
  GI50: 4.25 µM
  TGI: 48.7 µM
SF-539 CNS
  GI50: 15.7 µM
  TGI: 30.8 µM
SK-MEL-5 melanoma
  GI50: 11.6 µM
  TGI: 24.5 µM
NCI-H460 lung
  GI50: 11.3 µM
  TGI: 43.8 µM

## O=C1OC(c2ccccc2)=N/C1=C\c1ccc(N(CCCl)CCCl)cc1
HL-60(TB) leukemia
  TGI: > 100 µM
ACHN renal
  TGI: > 100 µM
IGROV1 ovarian
  TGI: > 100 µM
COLO 205 colon
  TGI: > 100 µM
U251 CNS
  TGI: > 100 µM
NCI-H23 lung
  TGI: > 100 µM
HCT-116 colon
  TGI: > 100 µM
SF-539 CNS
  TGI: > 100 µM
SK-MEL-5 melanoma
  TGI: > 100 µM
NCI-H460 lung
  TGI: > 100 µM

## O=C(COC(=O)[C@H](C[Se][Se]C[C@H](NC(=O)c1ccc(Br)cc1F)C(=O)OCC(=O)c1ccc(F)cc1)NC(=O)c1ccc(Br)cc1F)c1ccc(F)cc1
HL-60(TB) leukemia
  GI50: 0.425 µM
  TGI: > 100 µM
ACHN renal
  GI50: 1.65 µM
  TGI: 4.18 µM
IGROV1 ovarian
  GI50: 1.35 µM
  TGI: 3 µM
COLO 205 colon
  GI50: 1.67 µM
  TGI: 3.95 µM
U251 CNS
  GI50: 0.696 µM
  TGI: 1.92 µM
NCI-H23 lung
  GI50: 0.692 µM
  TGI: 2.7 µM
HCT-116 colon
  GI50: 1.02 µM
  TGI: 3.52 µM
SF-539 CNS
  GI50: 0.684 µM
  TGI: 1.8 µM
SK-MEL-5 melanoma
  GI50: 1.23 µM
  TGI: 4.27 µM
NCI-H460 lung
  GI50: 0.345 µM
  TGI: 1.27 µM

## O=[N+]([O-])c1cccc(C2=NOC3CCCC23)c1 (centres undefined)
HL-60(TB) leukemia
  TGI: > 100 µM
ACHN renal
  TGI: > 100 µM
IGROV1 ovarian
  TGI: > 100 µM
COLO 205 colon
  TGI: > 100 µM
U251 CNS
  TGI: > 100 µM
NCI-H23 lung
  TGI: > 100 µM
HCT-116 colon
  TGI: > 100 µM
SF-539 CNS
  TGI: > 100 µM
SK-MEL-5 melanoma
  TGI: > 100 µM
NCI-H460 lung
  TGI: > 100 µM

## Cn1nc(-c2ccccc2)c(C(=O)/C=C/c2ccccc2)c(N2CCCC2)c1=O
HL-60(TB) leukemia
  TGI: 22.7 µM
ACHN renal
  TGI: 41.5 µM
IGROV1 ovarian
  TGI: 55.7 µM
COLO 205 colon
  TGI: 30 µM
U251 CNS
  TGI: 26.4 µM
NCI-H23 lung
  TGI: 29.9 µM
HCT-116 colon
  TGI: 19.2 µM
SF-539 CNS
  TGI: 26.3 µM
SK-MEL-5 melanoma
  TGI: 35.7 µM
NCI-H460 lung
  TGI: 32.4 µM

## CC1=CC(=O)N2[C@H](OC[C@@H]2C(C)C)O1
HL-60(TB) leukemia
  TGI: > 100 µM
ACHN renal
  TGI: > 100 µM
IGROV1 ovarian
  TGI: > 100 µM
COLO 205 colon
  TGI: > 100 µM
U251 CNS
  TGI: > 100 µM
NCI-H23 lung
  TGI: > 100 µM
HCT-116 colon
  TGI: > 100 µM
SF-539 CNS
  TGI: > 100 µM
SK-MEL-5 melanoma
  TGI: > 100 µM
NCI-H460 lung
  TGI: > 100 µM

## CCn1c(SC)nnc1-c1cc2c([nH]c3ccccc32)c(-c2cccc(O)c2)n1
HL-60(TB) leukemia
  GI50: 0.929 µM
  TGI: 7.86 µM
ACHN renal
  GI50: 2.12 µM
  TGI: 6.47 µM
IGROV1 ovarian
  GI50: 2.57 µM
  TGI: 52 µM
COLO 205 colon
  GI50: 9.49 µM
  TGI: 27.5 µM
U251 CNS
  GI50: 2.97 µM
  TGI: 19.1 µM
NCI-H23 lung
  GI50: 4.51 µM
  TGI: 50.6 µM
HCT-116 colon
  GI50: 2.5 µM
  TGI: 14 µM
SF-539 CNS
  GI50: 1.46 µM
  TGI: 3.74 µM
SK-MEL-5 melanoma
  GI50: 1.03 µM
  TGI: 5.97 µM
NCI-H460 lung
  GI50: 1.6 µM
  TGI: 16.6 µM

## CCc1c[nH]c2ncnc(N3CC[C@](N)(CNC(=O)c4ccc(F)cc4F)C3)c12
HL-60(TB) leukemia
  GI50: 56.2 µM
  TGI: > 100 µM
ACHN renal
  GI50: 9.46 µM
  TGI: > 100 µM
IGROV1 ovarian
  GI50: 0.207 µM
  TGI: 6.67 µM
COLO 205 colon
  GI50: 8.12 µM
  TGI: > 64.8 µM
U251 CNS
  GI50: 0.76 µM
  TGI: > 100 µM
NCI-H23 lung
  GI50: 18.6 µM
  TGI: > 100 µM
HCT-116 colon
  GI50: 8.91 µM
  TGI: > 100 µM
SF-539 CNS
  GI50: 0.381 µM
  TGI: 29.4 µM
SK-MEL-5 melanoma
  GI50: 15.8 µM
  TGI: > 52.5 µM
NCI-H460 lung
  GI50: 1.78 µM
  TGI: > 100 µM
